According to PubChem BioAssay AID2060614 (Molecular Pharmacology Branch, DTP, NCI, 2025):

Tested on: 598228-144-R-J1-PDC complex spheroids, viability
Assay: Anticancer human tumor 598228-144-R-J1-PDC patient-derived serous endometrial adenocarcinoma cell line growth inhibition [CLK]
Conditions: for IC50: curve of first compound; for viability, T/C: stronger effect = lower value
Outline: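 Multi-cell-type spheroids combined patient-derived tumor cells with HUVEC endothelial cells and human mesenchymal stem cells. Paired agents were dosed in half-log steps down from about clinical Cmax, or from 10 microM where Cmax was unknown.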

[1] = second compound 0.0316 µM, first compound 0.0316 µM
[2] = second compound 0.0316 µM, first compound 0.1 µM
[3] = second compound 0.0316 µM, first compound 0.316 µM
[4] = second compound 0.0316 µM, first compound 1 µM
[5] = second compound 0.0316 µM, first compound 3.16 µM
[6] = second compound 0.0316 µM, first compound 10 µM
[7] = second compound 0.1 µM, first compound 0.0316 µM
[8] = second compound 0.1 µM, first compound 0.1 µM
[9] = second compound 0.1 µM, first compound 0.316 µM
[10] = second compound 0.1 µM, first compound 1 µM
[11] = second compound 0.1 µM, first compound 3.16 µM
[12] = second compound 0.1 µM, first compound 10 µM
[13] = second compound 0.316 µM, first compound 0.0316 µM
[14] = second compound 0.316 µM, first compound 0.1 µM
[15] = second compound 0.316 µM, first compound 0.316 µM
[16] = second compound 0.316 µM, first compound 1 µM
[17] = second compound 0.316 µM, first compound 3.16 µM
[18] = second compound 0.316 µM, first compound 10 µM
[19] = second compound 1 µM, first compound 0.0316 µM
[20] = second compound 1 µM, first compound 0.1 µM
[21] = second compound 1 µM, first compound 0.316 µM
[22] = second compound 1 µM, first compound 1 µM
[23] = second compound 1 µM, first compound 3.16 µM
[24] = second compound 1 µM, first compound 10 µM
[25] = second compound 3.16 µM, first compound 0.0316 µM
[26] = second compound 3.16 µM, first compound 0.1 µM
[27] = second compound 3.16 µM, first compound 0.316 µM
[28] = second compound 3.16 µM, first compound 1 µM
[29] = second compound 3.16 µM, first compound 3.16 µM
[30] = second compound 3.16 µM, first compound 10 µM
[31] = second compound 10 µM, first compound 0.0316 µM
[32] = second compound 10 µM, first compound 0.1 µM
[33] = second compound 10 µM, first compound 0.316 µM
[34] = second compound 10 µM, first compound 1 µM
[35] = second compound 10 µM, first compound 3.16 µM
[36] = second compound 10 µM, first compound 10 µM
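Note: spheroids exposed to compounds for seven days before readout.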
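Throughout, for viability, T/C: 100% = DMSO vehicle control wells.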

Nc1ccn(C2OC(CO)C(O)C2(F)F)c(=O)n1 (centres undefined) + CN1CCN(c2cc(C(=O)Nc3cc4cc(-c5cnn(C)c5)ccc4cn3)ccn2)CC1
IC50 (second compound 0.0316 µM): < 31.6 nM
IC50 (second compound 0.1 µM): < 31.6 nM
IC50 (second compound 0.316 µM): < 31.6 nM
IC50 (second compound 1 µM): < 31.6 nM
IC50 (second compound 3.16 µM): < 31.6 nM
IC50 (second compound 10 µM): < 31.6 nM
viability, T/C [1]: 42.6%
viability, T/C [2]: 23.5%
viability, T/C [3]: 24.3%
viability, T/C [4]: 21.2%
viability, T/C [5]: 23.4%
viability, T/C [6]: 28.3%
viability, T/C [7]: 46.5%
viability, T/C [8]: 26.8%
viability, T/C [9]: 25.4%
viability, T/C [10]: 28.5%
viability, T/C [11]: 28.5%
viability, T/C [12]: 29.5%
viability, T/C [13]: 18%
viability, T/C [14]: 16.9%
viability, T/C [15]: 14%
viability, T/C [16]: 15.4%
viability, T/C [17]: 17%
viability, T/C [18]: 16.9%
viability, T/C [19]: 3.9%
viability, T/C [20]: 1.1%
viability, T/C [21]: 2.41%
viability, T/C [22]: 1.35%
viability, T/C [23]: 2.84%
viability, T/C [24]: 4.14%
viability, T/C [25]: 1.84%
viability, T/C [26]: 4.4%
viability, T/C [27]: 1.37%
viability, T/C [28]: 1.5%
viability, T/C [29]: 5.71%
viability, T/C [30]: 5.03%
viability, T/C [31]: 0.74%
viability, T/C [32]: 0.77%
viability, T/C [33]: 2.69%
viability, T/C [34]: 0.88%
viability, T/C [35]: 5.39%
viability, T/C [36]: 1.96%

O=c1[nH]cc(F)c(=O)[nH]1 + CN1CCN(c2cc(C(=O)Nc3cc4cc(-c5cnn(C)c5)ccc4cn3)ccn2)CC1
IC50 (second compound 0.0316 µM): > 10000 nM
IC50 (second compound 0.1 µM): > 10000 nM
IC50 (second compound 0.316 µM): < 31.6 nM
IC50 (second compound 1 µM): < 31.6 nM
IC50 (second compound 3.16 µM): < 31.6 nM
IC50 (second compound 10 µM): < 31.6 nM
viability, T/C [1]: 128%
viability, T/C [2]: 120%
viability, T/C [3]: 132%
viability, T/C [4]: 125%
viability, T/C [5]: 125%
viability, T/C [6]: 96.5%
viability, T/C [7]: 149%
viability, T/C [8]: 119%
viability, T/C [9]: 123%
viability, T/C [10]: 139%
viability, T/C [11]: 113%
viability, T/C [12]: 96%
viability, T/C [13]: 20.4%
viability, T/C [14]: 25%
viability, T/C [15]: 18.3%
viability, T/C [16]: 18%
viability, T/C [17]: 18.1%
viability, T/C [18]: 21.4%
viability, T/C [19]: 1.7%
viability, T/C [20]: 1.4%
viability, T/C [21]: 1.3%
viability, T/C [22]: 1.91%
viability, T/C [23]: 4.01%
viability, T/C [24]: 5.93%
viability, T/C [25]: 1.76%
viability, T/C [26]: 3.81%
viability, T/C [27]: 1.88%
viability, T/C [28]: 2.14%
viability, T/C [29]: 1.46%
viability, T/C [30]: 5.59%
viability, T/C [31]: 0.99%
viability, T/C [32]: 0.93%
viability, T/C [33]: 0.6%
viability, T/C [34]: 1.01%
viability, T/C [35]: 5.93%
viability, T/C [36]: 4.87%
